These results are taken from patent publication US8865623B2, “Herbicidally active cyclic diones and derivatives thereof, processes for their preparation, compositions, and method of controlling weeds” (Syngenta Limited, priority 2009, dated 2014).

Format in all cases: in vivo
Experiment [1] has as its system Echinochloa crus-galli (ECHCG). The experiment in a line: Post-emergence herbicidal activity, glasshouse pot test. The settings on record: rate 250 g/ha, evaluated after 13 days; for pest or weed control at 250 g/ha: Echinochloa crus-galli, 312 h, glasshouse, read-out: Post-emergence activity ECHCG (100=total damage to plant; 0=no damage to plant). The essentials:
(§1)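 Visual damage (0 = no damage, 100 = total damage) was rated 13 days after spraying. Treatment was applied one day after sowing for pre-emergence, or after 8 days of cultivation for post-emergence, as aqueous spray of an acetone/water (50:50) formulation with 0.5% Tween 20.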

In experiment [2] the test system is Alopecurus myosuroides (ALOMY). Described as above. As to conditions: rate 250 g/ha, evaluated after 13 days; for pest or weed control at 250 g/ha: Alopecurus myosuroides, 312 h, glasshouse, read-out: Post-emergence activity ALOMY (100=total damage to plant; 0=no damage to plant). In outline:
as §1

The subject of experiment [3] is Lolium perenne (LOLPE). The experiment is described as above. The settings on record: rate 250 g/ha, evaluated after 13 days; for pest or weed control at 250 g/ha: Lolium perenne, 312 h, glasshouse, read-out: Post-emergence activity LOLPE (100=total damage to plant; 0=no damage to plant). In outline:
as §1

For experiment [4], the system named is Avena fatua (AVEFA). The experiment is described as above. As to conditions: rate 250 g/ha, evaluated after 13 days; for pest or weed control at 250 g/ha: Avena fatua, 312 h, glasshouse, read-out: Post-emergence activity AVEFA (100=total damage to plant; 0=no damage to plant). The essentials:
as §1

The test system of experiment [5] is Echinochloa crus-galli (ECHCG). The experiment in a line: Pre-emergence herbicidal activity, glasshouse pot test. As to conditions: evaluated after 13 days; for pest or weed control at 250 g/ha: Echinochloa crus-galli, 312 h, Rate 250 g/ha, pre-emergence spray, read-out: Pre-emergence activity ECHCG (100=total damage to plant; 0=no damage to plant); for ECHCG damage to plant (100=total damage to plant; 0=no damage to plant): pre-emergence, rate 250 g/ha. In outline: as §1

The test system of experiment [6] is Alopecurus myosuroides (ALOMY). The experiment is described as above. The settings on record: evaluated after 13 days; for pest or weed control at 250 g/ha: Alopecurus myosuroides, 312 h, Rate 250 g/ha, pre-emergence spray, read-out: Pre-emergence activity ALOMY (100=total damage to plant; 0=no damage to plant); for ALOMY damage to plant (100=total damage to plant; 0=no damage to plant): pre-emergence, rate 250 g/ha. In outline:
as §1

For experiment [7], the system named is Lolium perenne (LOLPE). The experiment is described as above. As to conditions: evaluated after 13 days; for pest or weed control at 250 g/ha: Lolium perenne, 312 h, Rate 250 g/ha, pre-emergence spray, read-out: Pre-emergence activity LOLPE (100=total damage to plant; 0=no damage to plant); for LOLPE damage to plant (100=total damage to plant; 0=no damage to plant): pre-emergence, rate 250 g/ha. The essentials:
as §1

In experiment [8] the test system is Avena fatua (AVEFA). The description is as above. The settings on record: evaluated after 13 days; for pest or weed control at 250 g/ha: Avena fatua, 312 h, Rate 250 g/ha, pre-emergence spray, read-out: Pre-emergence activity AVEFA (100=total damage to plant; 0=no damage to plant); for AVEFA damage to plant (100=total damage to plant; 0=no damage to plant): pre-emergence, rate 250 g/ha. In outline:
as §1

In the case of `CCc1ccc(Oc2ccc(Cl)cc2Cl)cc1C1=C(O)CCC(C)(C)C1=O` [Example A-111], the pest or weed control at 250 g/ha in experiment [1] stood at 40%; in experiment [2] it was 10%; in the experiment on Lolium perenne (LOLPE) [3] it was 50%; in the experiment with Avena fatua (AVEFA) [4], 0%; in experiment [5], 40%; in experiment [6], 10%. In addition, the pest or weed control at 250 g/ha in the experiment on Lolium perenne (LOLPE) [7] was 40%; in the experiment with Avena fatua (AVEFA) [8], 30%.

With `CCc1ccc(Oc2cnc3cc(Cl)ccc3n2)cc1C1=C(O)C(C)(C)OC(C)(C)C1=O` [Example A-55], the pest or weed control at 250 g/ha is 100% in experiment [1]; 100% in experiment [2]; 100% with Lolium perenne (LOLPE) [3]; 100% in the experiment with Avena fatua (AVEFA) [4]; 100% in experiment [5]; 80% in experiment [6]. Further, the values for the pest or weed control at 250 g/ha in the experiment on Lolium perenne (LOLPE) [7] and in the experiment with Avena fatua (AVEFA) [8] were 100% and 90%, respectively.

Take `CCc1ccc(Oc2ccc([N+](=O)[O-])c(Cl)c2)cc1C1=C(O)CC2(CCOCC2)CC1=O` [Example A-276]: the pest or weed control at 250 g/ha was 100% in experiment [1]; 60% in experiment [2]; 40% with Lolium perenne (LOLPE) [3]; 10% with Avena fatua (AVEFA) [4]; 100% in experiment [5]; 40% in experiment [6]. Moreover, the pest or weed control at 250 g/ha with Lolium perenne (LOLPE) [7] came out at 70%; in the experiment on Avena fatua (AVEFA) [8] it was 10%.

Turning to `CCc1ccc(Oc2ccc(C#N)cc2F)cc1C1=C(O)CC(C)(C)CC1=O` [Example A-87], the pest or weed control at 250 g/ha was determined as 80% in experiment [1]; 70% in experiment [2]; 40% in the experiment with Lolium perenne (LOLPE) [3]; 40% in the experiment with Avena fatua (AVEFA) [4]; 60% in experiment [5]; 30% in experiment [6]. The pest or weed control at 250 g/ha came to 40% in the experiment on Lolium perenne (LOLPE) [7] and 20% in the experiment on Avena fatua (AVEFA) [8].

Consider `CCc1ccc(Oc2nc(F)c(F)c(C)c2F)cc1C1=C(O)C(C)(C)OC(C)(C)C1=O` [Example A-59], for which the pest or weed control at 250 g/ha in experiment [1] is 100%; in experiment [2], 80%; in the experiment with Lolium perenne (LOLPE) [3] it was 70%; with Avena fatua (AVEFA) [4], 70%; in experiment [5], 100%; in experiment [6], 80%. The pest or weed control at 250 g/ha in the experiment with Lolium perenne (LOLPE) [7] is 100%; in the experiment on Avena fatua (AVEFA) [8], 70%.

In the case of `CCc1ccc(Oc2cnc3cc(Cl)ccc3n2)cc1C1=C(O)CC2(CCOCC2)CC1=O` [Example A-233], the pest or weed control at 250 g/ha in experiment [1] worked out at 100%; in experiment [2], 100%; in the experiment on Lolium perenne (LOLPE) [3] it was 100%; in the experiment with Avena fatua (AVEFA) [4], 100%; in experiment [5], 100%; in experiment [6], 70%. The pest or weed control at 250 g/ha in the experiment with Lolium perenne (LOLPE) [7] was 90%; in the experiment with Avena fatua (AVEFA) [8], 70%.

Regarding `CCc1ccc(Oc2cc(C)ccn2)cc1C1=C(O)C(C)(C)OC(C)(C)C1=O` [Example A-64], the pest or weed control at 250 g/ha in experiment [1] is 30%; in experiment [2] it was 40%; in the experiment with Lolium perenne (LOLPE) [3], 40%; with Avena fatua (AVEFA) [4] it was 0%; in experiment [5], 20%; in experiment [6] it was 60%. Also, the pest or weed control at 250 g/ha with Lolium perenne (LOLPE) [7] was 80%; in the experiment with Avena fatua (AVEFA) [8] it was 0%.

In the case of `CCc1ccc(Oc2ccc(C#N)cc2F)cc1C1=C(OC(C)=O)C(C)(C)OC(C)(C)C1=O` [Example P-1], the “ECHCG damage to plant (100=total damage to plant; 0=no damage to plant)” value in experiment [1] and in experiment [5] was 100 in each case. Besides, the “ALOMY damage to plant (100=total damage to plant; 0=no damage to plant)” value in experiment [2] and in experiment [6] was 80 each time. Further, the “LOLPE damage to plant (100=total damage to plant; 0=no damage to plant)” value with Lolium perenne (LOLPE) [3] is 90; with Lolium perenne (LOLPE) [7], 100. In addition, the “AVEFA damage to plant (100=total damage to plant; 0=no damage to plant)” value in the experiment with Avena fatua (AVEFA) [4] worked out at 60; in the experiment with Avena fatua (AVEFA) [8] it was 20.

Take `CCc1ccc(Oc2ccc(F)c(F)c2)cc1C1=C(O)C(C)(C)OC(C)(C)C1=O` [Example A-177]: the pest or weed control at 250 g/ha in experiment [1] amounted to 70%; in experiment [2] it was 0%; in the experiment on Lolium perenne (LOLPE) [3], 40%; with Avena fatua (AVEFA) [4] it was 20%; in experiment [5], 60%; in experiment [6] it was 0%. For the same compound, the figures for the pest or weed control at 250 g/ha in the experiment with Lolium perenne (LOLPE) [7] and in the experiment on Avena fatua (AVEFA) [8] were 30% and 0%, respectively.

In the case of `CCc1ccc(Oc2ncc(I)cc2Cl)cc1C1=C(O)C(C)(C)OC(C)(C)C1=O` [Example A-157], the pest or weed control at 250 g/ha in experiment [1] is 100%; in experiment [2], 90%; in the experiment with Lolium perenne (LOLPE) [3], 90%; in the experiment on Avena fatua (AVEFA) [4], 100%; in experiment [5], 80%; in experiment [6], 40%. Besides, the figures for the pest or weed control at 250 g/ha with Lolium perenne (LOLPE) [7] and in the experiment with Avena fatua (AVEFA) [8] were 50% and 30%, respectively.

Regarding `CCc1ccc(Oc2nc3ccc(Cl)cc3s2)cc1C1=C(O)[C@@H]2CC[C@](C)(C1=O)C2(C)C` [Example A-320], the pest or weed control at 250 g/ha was found to be 100% in experiment [1]; 100% in experiment [2]; 90% with Lolium perenne (LOLPE) [3]; 100% in the experiment on Avena fatua (AVEFA) [4]; 100% in experiment [5]; 80% in experiment [6]. The pest or weed control at 250 g/ha in the experiment on Lolium perenne (LOLPE) [7] was found to be 100%; in the experiment on Avena fatua (AVEFA) [8], 80%.

On to `CCc1ccc(Oc2ccc(F)cc2F)cc1C1=C(O)CCCC1=O` [Example A-69], for which the pest or weed control at 250 g/ha turned out to be 60% in experiment [1]; 10% in experiment [2]; 20% in the experiment on Lolium perenne (LOLPE) [3]; 0% in the experiment on Avena fatua (AVEFA) [4]; 80% in experiment [5]; 20% in experiment [6]. The values for the pest or weed control at 250 g/ha in the experiment on Lolium perenne (LOLPE) [7] and with Avena fatua (AVEFA) [8] were 30% and 0%, respectively.

Turning to `CCCOC(=O)OC1=C(c2cc(Oc3ccc(C#N)cc3F)ccc2CC)C(=O)C(C)(C)OC1(C)C` [Example P-6], the entries for the “ECHCG damage to plant (100=total damage to plant; 0=no damage to plant)” value in experiment [1] and in experiment [5] were 90 and 100, respectively. In addition, the “ALOMY damage to plant (100=total damage to plant; 0=no damage to plant)” value in experiment [2] was found to be 90; in experiment [6] it was 80. In addition, the figures for the “LOLPE damage to plant (100=total damage to plant; 0=no damage to plant)” value with Lolium perenne (LOLPE) [3] and with Lolium perenne (LOLPE) [7] were 70 and 90, respectively. In addition, the entries for the “AVEFA damage to plant (100=total damage to plant; 0=no damage to plant)” value with Avena fatua (AVEFA) [4] and in the experiment with Avena fatua (AVEFA) [8] were 50 and 20, respectively.

Regarding `CCc1ccc(Oc2nc3ccccc3o2)cc1C1=C(O)C(C)(C)OC(C)(C)C1=O` [Example A-118], the pest or weed control at 250 g/ha in experiment [1] worked out at 100%; in experiment [2] it was 90%; with Lolium perenne (LOLPE) [3], 100%; in the experiment with Avena fatua (AVEFA) [4], 80%; in experiment [5] it was 100%; in experiment [6], 100%. Besides, the pest or weed control at 250 g/ha in the experiment with Lolium perenne (LOLPE) [7] stood at 100%; in the experiment on Avena fatua (AVEFA) [8] it was 80%.

Consider `CCc1ccc(Oc2ccc(Cl)cc2[N+](=O)[O-])cc1C1=C(O)C(C)(C)OC(C)(C)C1=O` [Example A-226], for which the pest or weed control at 250 g/ha in experiment [1] turned out to be 100%; in experiment [2], 60%; with Lolium perenne (LOLPE) [3], 60%; in the experiment with Avena fatua (AVEFA) [4], 60%; in experiment [5], 60%; in experiment [6], 0%. The pest or weed control at 250 g/ha came to 30% in the experiment on Lolium perenne (LOLPE) [7] and 10% with Avena fatua (AVEFA) [8].
